Data reported in patent US8835470B2, “Mandelamide heterocyclic compounds” (Bristol-Myers Squibb Company, priority 2010, dated 2014).
pEC50, pIC50: −log10 of the molar value. Where a name gives a salt, the structure may show the parent alone.

Tests used:
S1P1 [1] = molecular target: T1, S1P1 (Homo sapiens (Human), UniProt P21453); assay: Receptor [35S] GTPγS Binding Assay, S1P1; assay type: biochemical; settings: for pEC50: membranes from S1P1/CHO cells, [35S]GTP; for GTPγS S1P3/S1P1: ratio of GTPγS S1P3 EC50 to GTPγS S1P1 EC50, * and ** S1P3 value at detection limit
Experimental: (§1) Receptor [35S] GTPγS Binding Assays
(§2) Membranes prepared from S1P1/CHO cells or EDG3-Ga15-bla HEK293T cells were added to the compound plate (40 μl/well, final protein 3 μg/well) with MULTIDROP®. [^35S]GTP (1250 Ci/mmol, Perkin Elmer) was diluted in assay buffer: 20 mM HEPES, pH7.5, 10 mM MgCl2, 150 mM NaCl, 1 mM EGTA, 1 mM DTT, 10 μM GDP, 0.1% fatty acid free BSA, and 10 μg/ml Saponin to 0.4 nM. 40 μl of the [^35S] GTP solution was added to the compound plate with a final concentration of 0.2 nM. The reaction was kept at room temperature for 45 min. At the end of incubation, all the mixtures in the compound plate were transferred to a 384 well FB filter plates via GPCR robot system. The filter plate was washed with water 4 times by using the modified manifold Embla plate washer and dried at 60° C. for 45 min. 30 μl of MicroScint 20 scintillation fluid was added to each well for counting at Packard TOPCOUNT®.
A larger value for the GTPγS S1P3 EC50 value indicated less activity in the GTPγS S1P3 binding assay.

S1P1 [2] = molecular target: T1, S1P1; assay: S1P1 Binding Assay; settings: membranes from CHO cells expressing human S1P1; 33P-S1P ligand; rounded to two digits
Experimental: Membranes were prepared from CHO cells expressing human S1P1. Cells were dissociated in buffer containing 20 mM HEPES, pH 7.5, 50 mM NaCl, 2 mM EDTA and Protease Inhibitor cocktail (Roche), and disrupted on ice using the Polytron homogenizer. The homogenate was centrifuged at 20,000 rpm (48,000 G) and the supernatant was discarded. The membrane pellets were resuspended in buffer containing 50 mM HEPES, pH 7.5, 100 mM NaCl, 1 mM MgCl2, 2 mM EDTA and stored in aliquots at −80° C. after protein concentration determination. Membranes (2 μg/well) and 0.03 nM final concentration of ^33P-S1P ligand (1 mCi/ml, American Radiolabeled Chemicals) were added to the compound plates. Binding was performed for 45 minutes at room temperature, terminated by collecting the membranes onto GF/B filter plates, and radioactivity was measured by TOPCOUNT®. The competition data of the test compounds over a range of concentrations was plotted as percentage inhibition of radioligand specific binding. The IC50 is defined as the concentration of competing ligand needed to reduce specific binding by 50%.
The results in Table A were rounded to two digits.

S1P3 = S1P3 (Homo sapiens (Human), UniProt Q99500); assay: Receptor [35S] GTPγS Binding Assay, S1P3; assay type: biochemical; settings: membranes from EDG3-Ga15-bla HEK293T cells; * detection limit 62,500 nM, ** detection limit 32,500 nM
Experimental: as §1
as §2, with “Compounds were loaded in a 384 FALCON® v-bottom plate (0.5 μl/well in a 3-fold dilution). Membranes” for “Membranes”, “TOPCOUNT®. EC50 is defined as the agonist concentration that corresponds to 50% of the Ymax (maximal response) obtained for each individual compound tested.” for “TOPCOUNT®.”
A smaller value for GTPγS S1P1 EC50 value indicated greater activity for the compound in the GTPγS S1P1 binding assay. A larger value for the GTPγS S1P3 EC50 value indicated less activity in the GTPγS S1P3 binding assay.

circulating lymphocytes = assay: Blood Lymphocyte Reduction Assay (BLR) in Rodents; assay type: in vivo; settings: Rattus norvegicus, Lewis rats, oral, 4 hr, vs vehicle group
Experimental: Blood Lymphocyte Reduction Assay (BLR) in Rodents
Lewis rats were dosed orally with test article (as a solution or suspension in the vehicle) or vehicle alone (polyethylene glycol 300, “PEG300”). Blood was drawn at 4 hr by retro-orbital bleeding. Blood lymphocyte counts were determined on an ADVIA® 120 Hematology Analyzer (Siemens Healthcare Diagnostics). The results were measured as a reduction in the percentage of circulating lymphocytes as compared to the vehicle treated group at the 4 hr measurement. The results represent the average results of all animals within each treatment group (n=3-4).
The following examples were tested in the Blood Lymphocyte Reduction assay (BLR) described hereinabove and the results are shown in Table D for rats.

T1 sequence (P21453 whole entry): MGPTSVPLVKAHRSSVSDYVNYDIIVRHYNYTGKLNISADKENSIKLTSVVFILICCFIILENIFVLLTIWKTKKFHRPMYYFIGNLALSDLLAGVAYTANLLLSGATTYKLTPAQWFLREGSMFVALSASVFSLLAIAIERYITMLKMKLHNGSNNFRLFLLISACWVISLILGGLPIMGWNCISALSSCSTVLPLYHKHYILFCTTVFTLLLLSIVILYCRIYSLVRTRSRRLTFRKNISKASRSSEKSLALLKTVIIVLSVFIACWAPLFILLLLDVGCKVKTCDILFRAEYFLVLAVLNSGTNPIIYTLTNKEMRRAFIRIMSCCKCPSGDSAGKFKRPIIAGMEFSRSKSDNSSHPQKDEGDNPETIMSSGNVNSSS
S1P3, sequence (Q99500 whole entry): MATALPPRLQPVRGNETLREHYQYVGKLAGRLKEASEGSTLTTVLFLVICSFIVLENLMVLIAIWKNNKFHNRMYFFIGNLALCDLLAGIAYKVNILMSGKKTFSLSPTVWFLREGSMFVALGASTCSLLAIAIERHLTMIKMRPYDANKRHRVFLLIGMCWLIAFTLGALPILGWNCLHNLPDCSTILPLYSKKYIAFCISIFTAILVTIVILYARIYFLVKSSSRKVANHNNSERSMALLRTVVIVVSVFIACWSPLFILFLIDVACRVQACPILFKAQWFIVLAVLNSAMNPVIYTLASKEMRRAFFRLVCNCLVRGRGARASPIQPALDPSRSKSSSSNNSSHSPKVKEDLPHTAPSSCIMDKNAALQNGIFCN

pEC50 (S1P1 [1]) | GTPγS S1P3/S1P1 (S1P1 [1]) | pIC50 (S1P1 [2]) | pEC50 (S1P3) | Structure (SMILES) | inhibition in vivo at 1 mg/kg (circulating lymphocytes; dose 1 mg/kg) [%] | inhibition in vivo at 3 mg/kg (circulating lymphocytes; dose 3 mg/kg) [%]
7.80 | 232 | 8.59 | 5.44 | N#CC1(NC(=O)C(O)c2ccc(-c3noc(-c4onc(-c5ccccc5)c4C(F)(F)F)n3)cc2)CC1 (single isomer, unassigned) [Example 41, N-(1-Cyanocyclopropyl)-2-hydroxy-2-(4-(5-(3-phenyl-4-(trifluoromethyl)isoxazol-5-yl)-1,2,4-oxadiazol-3-yl)phenyl)acetamide] | 80 | 
8.17 | 1031 | 8.17 | 5.16 | O=C(NCc1ncc[nH]1)C(O)c1ccc(-c2noc(-c3onc(-c4ccccc4)c3C(F)(F)F)n2)cc1 (single isomer, unassigned) [Example 17, N-((1H-Imidazol-2-yl)methyl)-2-hydroxy-2-(4-(5-(3-phenyl-4-(trifluoromethyl)isoxazol-5-yl)-1,2,4-oxadiazol-3-yl)phenyl)acetamide-TFA] |  | 69
